We go through 9 compounds from patent US7247645B2, “Dihydropyridine derivatives” (Ajinomoto Co., Inc., priority 1999, dated 2007).

Where two headings read alike, the source gives them in different places.

One assay concerns the target T1, L-type calcium channel (Rattus norvegicus, UniProt P22002).
T1 construct: The slips of thoracic aorta extracted from a Sprague-Dawry rat was used; from tissue; host or cells: rat (Sprague-Dawley) thoracic aorta rings, endothelium removed
Nature of the assay: Antagonistic activity on L-type calcium channel: relaxation of KCl contraction of rat thoracic aorta samples. To be noted: High K+ (50 mM KCl) contraction. On the procedure: The activity of the dihydropyridine derivatives of the present invention to inhibit L-type calcium channel was determined by the following method in which the relaxation reaction on the KCl contraction of samples of thoracic aorta extracted from rats was employed.
1) Method of preparation of samples of thoracic aorta extracted from rats:
The slips of thoracic aorta extracted from a Sprague-Dawry rat was used. The blood vessels were cut to obtain ring-shaped samples having a width of about 3 mm. The endothelial cells of the blood vessel were mechanically removed. The samples were suspended in a strain gage in Tyrode's solution (158.3 mM of NaCl, 4.0 mM of KCl, 1.05 mM of MgCl2, 0.42 mM of NaH2PO4, 10 mM of NaHCO3, 2 mM of CaCl2 and 5 mM of glucose) in which a gaseous mixture of O2 (95%) and CO2 (5%) was introduced. A static tension of 2 g was applied hereto. The tension of the blood vessel was amplified with transducer and a tension amplifier (EF-601G; Nihon Koden Corporation) and recorded with a multi-pen recorder (Rikadenki Kogyo Co., Ltd.). The experiments were conducted at 37° C.
2) Determination of Relaxation After KCl Contraction:
After the tension had been stabilized, the nutrient solution in the sample tank was replaced with High K^+ Tyrode's solution (112.3 mM of NaCl, 50 mM of KCl, 1.05 mM of MgCl2, 0.42 mM of NaH2PO4, 10 mM of NaHCO3, 2 mM of CaCl2 and 5 mM of glucose) to conduct the contraction reaction. 30 minutes after, the solution in the sample tank was replaced with the normal Tyrode's solution. The solution in the sample tank was again replaced with the High K^+ Tyrode's solution and the contraction reaction was observed. After attaining the maximum contraction reaction, the test compound was cumulatively added at intervals of […] to attain concentrations of 10^−7, 10^−6 and 10^−5M. The rate of the test compound to control the maximum contraction reaction was employed as the index of the inhibition activity on L-type calcium channel.

For assay [1], the target named is T2, N-type calcium channel (Homo sapiens, UniProt Q00975). The experiment in a line: N-type calcium channel antagonistic activity, changed procedure (calcium concentration change in IMR-32 cells, calculated from inhibition rates). Format: cell-based. To be noted: 60 mM KCl stimulation, Table 10, read-out: N-type inhibition pIC50 (converted). Here is the method: (§1) The medium used was a Phenol Red-free Eagle minimum essential medium (GIBCO) containing earle's salts supplement, 2 mM of L-glutamine (GIBCO), 1 mM of sodium pyruvate (pH 6.5) (GIBCO), antibiotic/antimicotic mixture (GIBCO) and 10% fetal calf serum (Cell Culture Technologies). 3 ml of 1×10^5/ml IMR-32 cells were spread on a glass dish (Iwaki Glass Co., Ltd.) having a diameter of 35 mm which was treated with poly-D-lysin (SIGMA) and collagen (COLLAGEN VITROGEN 100, Collagen Co.). After the culture for 2 days, 1 mM (final concentration) of dibutyl cAMP and 2.5 μM of bromodeoxyuridine (SIGMA) were added. After the culture for additional 10 to 14 days, the cells were subjected to the activity determination. The medium for IMR-32 cells thus prepared was replaced with 1 ml of Phenol Red-free Eagle minimum essential medium (GIBCO) containing […] 10 μM fura-2/AM (Dojin Kagaku, Co.) and earle's salts supplement, and the incubation was conducted at 25° C. for 1 hour.
T2 sequence (Q00975 whole entry): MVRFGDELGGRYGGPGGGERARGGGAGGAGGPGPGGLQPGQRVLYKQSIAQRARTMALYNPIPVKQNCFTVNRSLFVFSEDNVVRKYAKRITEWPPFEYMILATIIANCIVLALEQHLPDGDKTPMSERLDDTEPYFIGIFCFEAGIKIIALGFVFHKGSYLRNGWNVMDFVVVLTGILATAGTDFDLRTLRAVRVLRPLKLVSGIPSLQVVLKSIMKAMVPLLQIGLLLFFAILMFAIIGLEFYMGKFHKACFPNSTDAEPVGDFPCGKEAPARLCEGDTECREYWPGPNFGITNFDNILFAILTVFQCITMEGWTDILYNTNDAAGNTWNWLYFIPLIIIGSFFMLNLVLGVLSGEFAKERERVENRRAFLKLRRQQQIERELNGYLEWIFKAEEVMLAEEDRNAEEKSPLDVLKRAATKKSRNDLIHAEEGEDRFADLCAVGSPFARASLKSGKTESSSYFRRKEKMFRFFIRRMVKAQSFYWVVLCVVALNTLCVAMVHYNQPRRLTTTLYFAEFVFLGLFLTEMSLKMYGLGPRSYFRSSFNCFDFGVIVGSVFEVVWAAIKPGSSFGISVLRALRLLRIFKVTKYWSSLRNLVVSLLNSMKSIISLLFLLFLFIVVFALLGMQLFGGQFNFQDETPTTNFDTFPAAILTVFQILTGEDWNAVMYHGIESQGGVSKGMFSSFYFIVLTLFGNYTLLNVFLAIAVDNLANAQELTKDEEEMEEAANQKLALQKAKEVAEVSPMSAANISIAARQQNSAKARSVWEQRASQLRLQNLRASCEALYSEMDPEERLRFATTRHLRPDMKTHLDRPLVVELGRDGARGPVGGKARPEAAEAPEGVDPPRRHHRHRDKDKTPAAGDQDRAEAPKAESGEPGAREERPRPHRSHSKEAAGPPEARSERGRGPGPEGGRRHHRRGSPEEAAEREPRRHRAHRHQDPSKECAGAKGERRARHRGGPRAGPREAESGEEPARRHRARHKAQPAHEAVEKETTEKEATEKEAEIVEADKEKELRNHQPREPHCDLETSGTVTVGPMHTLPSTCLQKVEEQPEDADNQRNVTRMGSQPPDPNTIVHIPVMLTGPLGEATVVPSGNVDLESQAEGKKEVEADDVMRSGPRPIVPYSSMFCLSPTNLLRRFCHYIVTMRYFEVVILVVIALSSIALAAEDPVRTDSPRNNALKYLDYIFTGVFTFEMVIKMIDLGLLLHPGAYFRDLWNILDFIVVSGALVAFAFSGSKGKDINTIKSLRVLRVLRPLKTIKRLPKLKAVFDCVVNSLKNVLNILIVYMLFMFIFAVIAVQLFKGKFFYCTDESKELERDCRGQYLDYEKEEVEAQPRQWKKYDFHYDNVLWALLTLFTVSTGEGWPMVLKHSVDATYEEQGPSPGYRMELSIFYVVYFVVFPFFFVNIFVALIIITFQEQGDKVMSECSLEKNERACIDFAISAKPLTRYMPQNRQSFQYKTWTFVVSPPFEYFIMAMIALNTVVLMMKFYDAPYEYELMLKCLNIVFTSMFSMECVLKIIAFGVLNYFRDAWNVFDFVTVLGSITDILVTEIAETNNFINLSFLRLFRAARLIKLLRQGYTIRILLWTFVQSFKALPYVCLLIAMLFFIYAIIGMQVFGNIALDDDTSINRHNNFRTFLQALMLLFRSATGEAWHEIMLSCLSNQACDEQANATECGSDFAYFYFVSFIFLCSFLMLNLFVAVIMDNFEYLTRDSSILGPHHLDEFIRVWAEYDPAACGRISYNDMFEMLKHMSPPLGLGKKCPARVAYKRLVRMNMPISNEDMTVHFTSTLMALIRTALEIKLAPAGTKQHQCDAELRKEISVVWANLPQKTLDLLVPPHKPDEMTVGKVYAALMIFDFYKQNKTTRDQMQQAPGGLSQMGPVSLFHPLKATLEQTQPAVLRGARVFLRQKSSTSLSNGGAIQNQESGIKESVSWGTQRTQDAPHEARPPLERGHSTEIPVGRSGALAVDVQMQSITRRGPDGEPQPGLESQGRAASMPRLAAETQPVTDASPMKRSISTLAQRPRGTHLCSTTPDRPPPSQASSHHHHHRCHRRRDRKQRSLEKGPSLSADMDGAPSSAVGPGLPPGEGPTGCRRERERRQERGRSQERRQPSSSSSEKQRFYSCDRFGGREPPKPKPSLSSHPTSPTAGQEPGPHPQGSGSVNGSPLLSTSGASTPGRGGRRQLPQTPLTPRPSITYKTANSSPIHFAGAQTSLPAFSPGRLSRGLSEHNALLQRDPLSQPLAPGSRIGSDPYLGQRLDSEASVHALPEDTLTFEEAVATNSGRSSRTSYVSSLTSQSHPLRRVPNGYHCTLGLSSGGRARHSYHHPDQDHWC
T2 sequence (P54289 25-1103 partner): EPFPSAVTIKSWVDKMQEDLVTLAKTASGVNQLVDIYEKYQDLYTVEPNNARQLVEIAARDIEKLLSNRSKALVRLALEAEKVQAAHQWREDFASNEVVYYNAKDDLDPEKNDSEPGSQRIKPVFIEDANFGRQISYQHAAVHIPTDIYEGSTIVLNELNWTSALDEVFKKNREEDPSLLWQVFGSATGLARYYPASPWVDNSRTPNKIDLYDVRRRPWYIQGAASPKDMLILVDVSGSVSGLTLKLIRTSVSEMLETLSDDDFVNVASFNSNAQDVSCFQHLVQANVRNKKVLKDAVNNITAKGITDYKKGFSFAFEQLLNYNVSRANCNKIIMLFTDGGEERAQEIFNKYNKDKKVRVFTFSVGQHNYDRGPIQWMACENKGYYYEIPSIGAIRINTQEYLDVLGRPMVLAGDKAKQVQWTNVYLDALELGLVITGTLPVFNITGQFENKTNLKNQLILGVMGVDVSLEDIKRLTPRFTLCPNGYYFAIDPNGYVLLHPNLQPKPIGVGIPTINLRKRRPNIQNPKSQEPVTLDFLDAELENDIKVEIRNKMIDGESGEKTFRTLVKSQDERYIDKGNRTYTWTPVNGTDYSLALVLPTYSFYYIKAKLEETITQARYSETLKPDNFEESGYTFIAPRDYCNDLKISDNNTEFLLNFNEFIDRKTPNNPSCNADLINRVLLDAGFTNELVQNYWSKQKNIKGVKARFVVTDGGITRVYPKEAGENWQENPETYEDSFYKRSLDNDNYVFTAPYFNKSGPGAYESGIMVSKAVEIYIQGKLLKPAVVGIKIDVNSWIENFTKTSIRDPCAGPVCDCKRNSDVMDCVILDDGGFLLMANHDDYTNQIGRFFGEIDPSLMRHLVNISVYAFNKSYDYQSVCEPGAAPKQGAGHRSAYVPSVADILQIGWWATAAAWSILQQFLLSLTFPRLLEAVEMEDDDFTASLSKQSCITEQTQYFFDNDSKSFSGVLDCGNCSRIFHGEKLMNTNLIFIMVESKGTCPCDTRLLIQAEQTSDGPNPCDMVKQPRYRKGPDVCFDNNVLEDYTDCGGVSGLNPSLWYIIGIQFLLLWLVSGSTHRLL
T2 sequence (P54284 whole entry partner): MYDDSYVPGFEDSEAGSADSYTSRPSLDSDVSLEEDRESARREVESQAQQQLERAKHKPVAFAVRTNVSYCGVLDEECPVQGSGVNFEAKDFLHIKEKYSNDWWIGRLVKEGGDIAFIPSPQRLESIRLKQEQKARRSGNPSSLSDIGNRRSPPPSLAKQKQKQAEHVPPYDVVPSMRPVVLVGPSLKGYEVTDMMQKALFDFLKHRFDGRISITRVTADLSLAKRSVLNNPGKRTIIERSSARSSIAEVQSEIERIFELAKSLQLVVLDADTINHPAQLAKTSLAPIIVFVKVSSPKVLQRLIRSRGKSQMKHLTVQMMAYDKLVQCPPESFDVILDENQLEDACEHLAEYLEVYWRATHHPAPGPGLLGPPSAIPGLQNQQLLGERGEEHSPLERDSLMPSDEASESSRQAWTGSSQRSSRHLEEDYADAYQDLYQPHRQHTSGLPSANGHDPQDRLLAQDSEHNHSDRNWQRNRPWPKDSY
(§2) Then the medium was replaced with Phenol Red-free Eagle minimum essential medium (GIBCO) containing earle's salts supplement, from which fura-2/AM had been removed. After the incubation at 37° C. for 1 hour, the medium was replaced with a recording medium (20 mM of HEPES-KOH, 115 mM of NaCl, 5.4 mM of KCl, 0.8 mM of MgCl2, 1.8 mM of CaCl2 and 13.8 mM of D-glucose). Antagonistic activity on N-type calcium channel was determined and analyzed by using a fluorescence microscope (Nikon Corporation) and an image analysis device ARGUS 50 (Hamamatsu Photonics). In particular, a recording medium (20 mM of HEPES-KOH, 115 mM of NaCl, 5.4 mM of KCl, 0.8 mM of MgCl2, 1.8 mM of CaCl2 and 13.8 mM of D-glucose) containing 1 μM of Nifedipine was given to the cells by reflux by a Y-tube method. Then a stimulating agent containing 60 mM of potassium chloride was rapidly given by the Y-tube method. Thereafter stimulating agents containing 60 mM of potassium chloride and 0.1, 1 or 10 μM of test compound were successively rapidly given by the Y-tube method to determine the antagonistic activity on the channel. Finally, a stimulating agent containing 60 mM of potassium chloride and 1 μM of omega conotoxin GVIA (Peptide institute, inc.) was rapidly given by the Y-tube method to realize a condition of 100% inhibition of N-type calcium channel.
The same procedure as that of the above-described tests was repeated except for the following changes: 60 mM of potassium chloride-containing stimulating agent was rapidly given by the Y-tube method while the calcium concentration change in the cells was examined in terms of N-type calcium channel activity. Then Stimulating agents containing 60 mM of potassium chloride and 0.1, 1 or 10 μM of test compound were successively and rapidly given by the Y-tube method. A change in calcium concentration in the cells was determined.

Assay [2] deals with T2, N-type calcium channel. Nature of the assay: Antagonistic activity on N-type calcium channel (fluorescence dye method), IMR-32 cells, in presence of 1 μM Nifedipine. Format: cell-based. The note with it: 60 mM KCl stimulation, 0.1, 1 or 10 μM test compound, Table 9, read-out: N-type inhibition pIC50 (converted). On the procedure:
as §1, §2

The mark [3] stands for this setting: Table 9, read-out: L-type inhibition IC50.
Setting [4] is: Table 10, read-out: L-type inhibition IC50.

On to `CC1=C(C(=O)O)C(c2cccc(Cl)c2)C(C(=O)OCCC(c2ccccc2)c2ccccc2)=C(COCCN2CCCCC2)N1` (stereo not shown) [Example 12, 5-(3,3-diphenylpropane-1-yl)4-(3-chlorophenyl)-2-methyl-6-(2-piperidine-1-yl-ethoxymethyl)-1,4-dihydropyridine-3,5-dicarboxylate], for which the IC50 was 2.69 µM on L-type calcium channel (setting [3]), 3.98 µM at N-type calcium channel [1] and 1.58 µM on N-type calcium channel [2].
As to `CC1=C(C(=O)O)C(c2cccc(Cl)c2)C(C(=O)OCCC(c2ccccc2)c2ccccc2)=C(COCCc2ccncc2)N1` (stereo not shown) [Example 54, 5-(3,3-diphenylpropyl)4-(3-chlorophenyl)-2-methyl-6-(2-[pyridine-4-yl]ethoxymethyl)-1,4-dihydropyridine-3,5-dicarboxylate], the IC50 was 1.58 µM at L-type calcium channel (setting [4]) and 2 µM on N-type calcium channel [1].
For `CC1=C(C(=O)O)C(c2cccc(Cl)c2)C(C(=O)OCCC(c2ccccc2)c2ccccc2)=C(C(F)(F)F)N1` (stereo not shown) [Example 57, 5-(3,3-diphenylpropyl)4-(3-chlorophenyl)-2-methyl-6-trifluoromethyl-1,4-dihydropyridine-3,5-dicarboxylate], the results for the IC50 on L-type calcium channel (setting [4]) and on N-type calcium channel [1] were 1.78 µM and 1.58 µM, respectively.
With `COC(OC)C1=C(C(=O)OCCC(c2ccccc2)c2ccccc2)C(c2cccc(Cl)c2)C(C(=O)O)=C(C)N1` (stereo not shown) [Example 60, 3-(3,3-diphenylpropyl)4-(3-chlorophenyl)-2-dimethoxymethyl-6-methyl-1,4-dihydropyridine-3,5-dicarboxylate], the IC50 was 3.89 µM at L-type calcium channel (setting [4]) and 1.58 µM on N-type calcium channel [1].
Turning to `CC1=C(C(=O)O)C(c2cccc(Cl)c2)C(C(=O)OCCC(c2ccccc2)c2ccccc2)=C(COCCc2cccnc2)N1` (stereo not shown) [Example 33, 5-(3,3-diphenyl-1-propyl)4-(3-chlorophenyl)-2-methyl-6-(2-(3-pyridine)ethoxy)methyl-1,4-dihydropyridine-3,5-dicarboxylate], the figures for the IC50 at L-type calcium channel (setting [4]) and on N-type calcium channel [1] were 1.7 µM and 1.58 µM, respectively.
As for `CC1=C(C(=O)O)C(c2cccc(Cl)c2)C(C(=O)OCCC(c2ccccc2)c2ccccc2)=C(COCCO)N1` (stereo not shown) [Example 20, 3-(3,3-diphenylpropane-1-yl)4-(3-chlorophenyl)-2-(2-hydroxyethoxymethyl)-6-methyl-1,4-dihydropyridine-3,5-dicarboxylate], the IC50 on L-type calcium channel (setting [3]) is 2.78 µM; at L-type calcium channel (setting [4]), 2.88 µM; on N-type calcium channel [1] it was 3.16 µM; at N-type calcium channel [2], 1.78 µM.
With `CC1=C(C(=O)OCCC(c2ccccc2)c2ccccc2)C(c2cccc(Cl)c2)C(C(=O)N2CCN(C(=O)OC(C)(C)C)CC2)=C(C)N1` (stereo not shown) [Example 15, t-butyl 4-(4-(3-chlorophenyl)-5-(3,3-diphenylpropoxycarbonyl)-2,6-dimethyl-1,4-dihydropyridine-3-carbonyl)piperazine-1-carboxylate], the figures for the IC50 at L-type calcium channel (setting [3]) and on N-type calcium channel [2] were 20.8 µM and 0.372 µM, respectively.
Regarding `COCC1=C(C(=O)OCCC(c2ccccc2)c2ccccc2)C(c2cccc(Cl)c2)C(C(=O)O)=C(C)N1` (stereo not shown) [Example 14, 3-(3,3-diphenylpropane-1-yl)4-(3-chlorophenyl)-2-methoxymethyl-6-methyl-1,4-dihydropyridine-3,5-dicarboxylate], the IC50 on L-type calcium channel (setting [3]) was 4.28 µM; at L-type calcium channel (setting [4]), 4.27 µM; at N-type calcium channel [1], 2 µM; at N-type calcium channel [2] it was 1.2 µM.
As to `CC1=C(C(=O)OCCC(c2ccccc2)c2ccccc2)C(c2cccc(Cl)c2)C(C(=O)O)=C(COCCN2CCCCC2)N1` (stereo not shown) [Example 23, 3-(3,3-diphenylpropane-1-yl)4-(3-chlorophenyl)-2-methyl-6-(2-(piperidine-1-yl)ethoxymethyl)-1,4-dihydropyridine-3,5-dicarboxylate], the IC50 is 1.8 µM at L-type calcium channel (setting [3]), 1.82 µM on L-type calcium channel (setting [4]), 1.58 µM at N-type calcium channel [1] and 1.2 µM on N-type calcium channel [2].
